According to ChEMBL document CHEMBL1143344, “Novel DNA-directed alkylating agents: design, synthesis and potent antitumor effect of phenyl N-mustard-9-anilinoacridine conjugates via a carbamate or carbonate linker” (Bioorg Med Chem, 2009):
pIC50: −log10 of the molar value. Active and inactive are the calls of the source. No cut-off for these calls is given here.

Key:
CCRF-CEM [1] = assay: Ratio of IC50 for vinblastine-resistant human CCRF-CEM cells to IC50 for human CCRF-CEM cells; format: functional
CCRF-CEM [2] = assay: Cytotoxicity against taxol-resistant human CCRF-CEM cells after 72 hrs by XTT assay; format: functional, cell-based
CCRF-CEM [3] = assay: Cytotoxicity against vinblastine-resistant human CCRF-CEM cells after 72 hrs by XTT assay; format: functional, cell-based
CCRF-CEM [4] = assay: Ratio of IC50 for taxol-resistant human CCRF-CEM cells to IC50 for human CCRF-CEM cells; format: functional
MX1 [5] = assay: Cytotoxicity against human MX1 cells after 72 hrs by SRB assay; format: functional, cell-based; conditions: MX1, 72 h
MX1 [6] = assay: Antitumor activity against human MX1 cells xenografted in athymic nude mouse assessed as total tumor remission at 50 mg/kg, iv administered q2d for 9 days measured after 29 days; format: functional, organism-based; parameters: dose 50 mg/kg
MX1 [7] = assay: Antitumor activity against human MX1 cells xenografted in athymic nude mouse assessed as total tumor remission at 50 mg/kg, iv administered q2d for 9 days measured after 31 days; format: functional, organism-based; parameters: dose 50 mg/kg
MX1 [8] = assay: Antitumor activity against human MX1 cells xenografted in athymic nude mouse assessed as total tumor remission at 50 mg/kg, iv administered q2d for 9 days measured after 35 days; format: functional, organism-based; parameters: dose 50 mg/kg
HCT-116 [9] = assay: Cytotoxicity against human HCT116 cells after 72 hrs by SRB assay; format: functional, cell-based; conditions: HCT-116, 72 h
Mus musculus = assay: Toxicity in athymic nude mouse xenografted with human HCT116 cells assessed as body weight loss at 50 mg/kg, iv administered q2d for 7 days; format: organism-based, HCT-116; parameters: dose 50 mg/kg, route intravenous; conditions: in vivo, 168 h
MX1 [10] = assay: Antitumor activity against human MX1 cells xenografted in athymic nude mouse assessed as total tumor remission at 50 mg/kg, iv administered q2d for 9 days measured after 33 days; format: functional, organism-based; parameters: dose 50 mg/kg
CCRF-CEM [11] = assay: Cytotoxicity against human CCRF-CEM cells after 72 hrs by XTT assay; format: functional, cell-based; conditions: read-out: IC50
HCT-116 [12] = assay: Antitumor activity against human HCT116 cells xenografted in athymic nude mouse assessed as tumor growth inhibition at 50 mg/kg, iv administered q2d for 7 days; format: functional; parameters: scale not given: the % may be the effect or the level left
[13] = Cytotoxicity against human CL1-5 cells after 72 hrs by WST1 assay; format: functional, cell-based; conditions: CL1-5, 72 h
[14] = Cytotoxicity against human H1299 cells after 72 hrs by WST1 assay; format: functional, cell-based; conditions: NCI-H1299, 72 h
MCF7 = assay: Cytotoxicity against human MCF7 cells after 72 hrs by WST1 assay; format: functional, cell-based; conditions: MCF7, 72 h
PC-3 = assay: Cytotoxicity against human PC3 cells after 72 hrs by WST1 assay; format: functional, cell-based; conditions: PC-3, 72 h
[15] = Cytotoxicity against human CL1-0 cells after 72 hrs by WST1 assay; format: functional, cell-based; conditions: CL1-0, 72 h
MX1 [16] = assay: Antitumor activity against human MX1 cells xenografted in athymic nude mouse assessed as total tumor remission at 50 mg/kg, iv administered q2d for 5 days measured after 20 days; format: functional, organism-based; parameters: dose 50 mg/kg
MX1 [17] = assay: Antitumor activity against human MX1 cells xenografted in athymic nude mouse assessed as total tumor remission at 50 mg/kg, iv administered q2d for 5 days measured after 12 days; format: functional, organism-based; parameters: dose 50 mg/kg
[18] = Stability in rat plasma assessed as half life at 5 ug/ml after 10 mins by HPLC; format: ADME, cell-free
H1299 [19] = assay: Induction of DNA interstrand cross-linking in 20 Gy irradiated human H1299 cells after 1 hr by comet assay; format: cell-based
H1299 [20] = assay: Induction of DNA interstrand cross-linking in 20 Gy irradiated human H1299 cells assessed as decrease in DNA migration after 1 hr by comet assay; format: cell-based
H1299 [21] = assay: Induction of DNA interstrand cross-linking in 20 Gy irradiated human H1299 cells at 200 uM after 1 hr by comet assay; format: cell-based
H1299 [22] = assay: Induction of DNA interstrand cross-linking in 20 Gy irradiated human H1299 cells at 10 uM after 1 hr by comet assay; format: cell-based
MX1 [23] = assay: Antitumor activity against human MX1 cells xenografted in athymic nude mouse assessed as no tumor relapse at 50 mg/kg, iv administered q2d for 5 days measured after 129 days; format: functional, organism-based; parameters: dose 50 mg/kg
MX1 [24] = assay: Antitumor activity against human MX1 cells xenografted in athymic nude mouse assessed as total tumor remission at 10 mg/kg, iv administered q2d for 3 days measured after 16 days; format: functional, organism-based; parameters: dose 10 mg/kg
MX1 [25] = assay: Antitumor activity against human MX1 cells xenografted in athymic nude mouse assessed as total tumor remission at 10 mg/kg, iv administered q2d for 3 days measured after 20 days; format: functional, organism-based; parameters: dose 10 mg/kg
MX1 [26] = assay: Antitumor activity against human MX1 cells xenografted in athymic nude mouse assessed as total tumor remission at 10 mg/kg, iv administered q2d for 3 days measured after 18 days; format: functional, organism-based; parameters: dose 10 mg/kg

| Compound | Ratio IC50 (CCRF-CEM [1]) | pIC50 (CCRF-CEM [2]) | pIC50 (CCRF-CEM [3]) | Ratio IC50 (CCRF-CEM [4]) | pIC50 (MX1 [5]) | pIC50 (HCT-116 [9]) | pIC50 (CCRF-CEM [11]) | pIC50 [13] | pIC50 [14] | pIC50 (MCF7) | pIC50 (PC-3) | pIC50 [15] | further results |
| --- | --- | --- | --- | --- | --- | --- | --- | --- | --- | --- | --- | --- | --- |
| Nc1cc(CO)cc(Nc2c3ccccc3nc3ccccc23)c1 | 2.7 | 6.22 | 5.80 | 0.8 | 8.46 | – | – | – | – | – | – | – | – |
| Cc1ccc(Nc2c3ccccc3nc3c(C)cccc23)cc1NC(=O)Oc1ccc(N(CCCl)CCCl)cc1 | 1.2 | 6.77 | 6.80 | 1.3 | 6.54 | 6.22 | 6.88 | – | – | – | – | – | Activity (MX1 [6]): Active; Activity (MX1 [7]): Active; Activity (MX1 [8]): Active; Activity (Mus musculus): 8%; Activity (MX1 [10]): Active; Activity (HCT-116 [12]): 89% |
| CCOC(=O)Nc1cc(COC(=O)Nc2ccc(N(CCCl)CCCl)cc2)cc(Nc2c3ccccc3nc3ccccc23)c1 | – | – | – | – | 6.22 | – | 7.07 | – | – | – | – | – | – |
| COc1ccc(NC(=O)Oc2ccc(N(CCCl)CCCl)cc2)cc1Nc1c2ccccc2nc2ccccc12 | – | 6.23 | 6.60 | 1.08 | 5.81 | 6.15 | 6.27 | – | – | – | – | – | – |
| COc1ccc(Nc2c3ccccc3nc3c(C)cccc23)cc1NC(=O)Oc1ccc(N(CCCl)CCCl)cc1 | 7.9 | 7.57 | 6.72 | 1.1 | 6.86 | 6.62 | 7.62 | 5.05 | 6.45 | 5.46 | 5.80 | 5.65 | – |
| Cc1ccc(NC(=O)Oc2ccc(N(CCCl)CCCl)cc2)cc1Nc1c2ccccc2nc2c(C)cccc12 | 0.7 | 6.86 | 7.03 | 1.05 | 6.79 | 6.58 | 6.88 | 4.98 | 6.21 | 5.24 | 5.35 | 5.33 | – |
| Cc1c(NC(=O)Oc2ccc(N(CCCl)CCCl)cc2)cccc1Nc1c2ccccc2nc2c(C)cccc12 | 0.89 | 6.76 | 6.85 | 1.09 | 6.74 | 6.49 | 6.80 | – | – | – | – | – | – |
| O=C(Nc1cc(CO)cc(Nc2c3ccccc3nc3ccccc23)c1)Oc1ccc(N(CCCl)CCCl)cc1 | 2.5 | 6.85 | 6.74 | 1.9 | 7.00 | 6.25 | 7.12 | 5.30 | 6.55 | 5.32 | 5.79 | 5.57 | Activity (MX1 [16]): Active; Activity (MX1 [17]): Active; half-life at 5 ug/ml [18]: 6.41 h; Activity (H1299 [19]): Dose-dependent effect; Activity (H1299 [20]): Dose-dependent effect; Activity (Mus musculus): 8%; Activity (H1299 [21]): 39.7%; Activity (HCT-116 [12]): 98%; Activity (H1299 [22]): 74.2%; Activity (MX1 [23]): Active |
| CCOC(=O)Nc1cc(COC(=O)Oc2ccc(N(CCCl)CCCl)cc2)cc(Nc2c3ccccc3nc3ccccc23)c1 | 1.5 | 6.29 | 6.32 | 1.6 | 7.05 | 6.19 | 6.50 | 5.34 | 6.28 | 4.70 | 4.63 | 6.39 | Activity (MX1 [24]): Active; Activity (MX1 [25]): Active; Activity (MX1 [26]): Active |
| OCc1cc(Nc2c3ccccc3nc3ccccc23)cc(OCCN(CCCl)CCCl)c1 | 4.9 | 8.12 | 7.47 | 1.1 | 8.46 | – | – | – | – | – | – | – | – |
